{
  "source": "patent US20100227841A1",
  "about": "“Patient populations and treatment methods” (Harbor BioSciencs, Inc., priority 2008, published 2010)",
  "system": "CCR2 / MCP1",
  "experiment": "Effects of treatment on CCR2 expression and circulating MCP1",
  "format": "in vivo",
  "text": "The treatment methods described herein may involve treating patient subsets having elevated MCP1 (monocyte chemoattractant protein 1, or sometimes referred to as CCL2, which is CC chemokine receptor 2 ligand). CC chemokine receptor 2 (CCR2) is the receptor for MCP1. […] These effects are consistent with biological responses that correspond to reduced progression and/or at least partial reversal of cardiovascular plaque accumulation. That provides a basis for treating, e.g., slowing the progression, of arteriosclerosis and atherosclerosis. Such treatments would be effective in patients having a dyslipidemia such as hypercholesterolemia and/or hypertriglyceridemia with or without also having an arteriosclerosis condition such as atherosclerosis. Such patients will preferably have BMI and fasting plasma insulin levels as described in the embodiments described below (e.g., in embodiment 1, 9, 10, 17 or 19), examples or original claims, e.g., a BMI of ≧28 and insulin of ≧4 μU/mL. Any of these patients may also have hyperglycemia or overt diabetes. Patients with elevated MCP1 are also treatable for preventing or reducing the severity of cardiovascular disease, including myocardial infarction.",
  "data": [
    {"compound": "C#C[C@]1(O)CC[C@H]2[C@@H]3[C@@H](O)C=C4C[C@@H](O)CC[C@]4(C)[C@H]3CC[C@@]21C", "note": "[17α-ethynylandrost-5-ene-3β,7β,17β-triol]", "values": [
      {"measurement": "expression levels of CCR2", "setting": "in vivo", "result": "decrease"},
      {"measurement": "MCP1 in circulation", "setting": "typically protein levels in serum, e.g. ELISA", "result": "trend to decrease"}
    ]}
  ]
}
